In the supplement of paper PMC6045584:
± gives the standard deviation of the averaged measurements.

How the values were obtained:
AFATINIB = compound: CN(C)C/C=C/C(=O)Nc1cc2c(Nc3ccc(F)c(Cl)c3)ncnc2cc1O[C@H]1CCOC1 [AFATINIB]; assay: surviving fraction relative to DMSO-only wells; higher = less growth inhibition; conditions: exposure time: 5 days
Procedure, shortened: (§1)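 Lines were retained only if, across three screens, replicate Pearson r was >0.7 and median Z' was >0.3. Viability was measured as CellTiter-Glo luminescence and reported as surviving fraction relative to the median of DMSO-only wells. Readings followed 10 minutes at room temperature, after log-phase tumour cells seeded at 250–500 per well in 384-well plates had been exposed, from 24 hours after seeding, continuously for five days to inhibitors at 0.5, 1, 5, 10, 50, 100, 500 and 1000 nM.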

TIOGUANINE = compound: Nc1nc2[nH]cnc2c(=S)[nH]1 [TIOGUANINE]; assay: as above; conditions: exposure time: 5 days
Procedure, shortened: as §1

| Test System | surviving fraction (AFATINIB; 0.5 nM) | surviving fraction (AFATINIB; 1 nM) | surviving fraction (AFATINIB; 5 nM) | surviving fraction (AFATINIB; 10 nM) | surviving fraction (AFATINIB; 50 nM) | surviving fraction (AFATINIB; 100 nM) | surviving fraction (AFATINIB; 500 nM) | surviving fraction (AFATINIB; 1000 nM) | surviving fraction (TIOGUANINE; 0.5 nM) | surviving fraction (TIOGUANINE; 1 nM) | surviving fraction (TIOGUANINE; 5 nM) | surviving fraction (TIOGUANINE; 10 nM) | surviving fraction (TIOGUANINE; 50 nM) | surviving fraction (TIOGUANINE; 100 nM) | surviving fraction (TIOGUANINE; 500 nM) | surviving fraction (TIOGUANINE; 1000 nM) |
| --- | --- | --- | --- | --- | --- | --- | --- | --- | --- | --- | --- | --- | --- | --- | --- | --- |
| MDAMB361 BREAST | 0.932 ± 0.059 | 0.796 ± 0.034 | 0.81 ± 0.041 | 0.799 ± 0.06 | 0.682 ± 0.088 | 0.629 ± 0.04 | 0.535 ± 0.02 | 0.459 ± 0.027 | 0.914 ± 0.011 | 0.845 ± 0.011 | 0.881 ± 0.0085 | 0.884 ± 0.062 | 0.846 ± 0.018 | 0.955 ± 0.054 | 0.882 ± 0.067 | 0.963 ± 0.043 |
| SG32 HEADNECK | 1.13 ± 0.14 | 1.09 ± 0.082 | 1.13 ± 0.2 | 1.01 ± 0.078 | 0.895 ± 0.11 | 0.864 ± 0.07 | 0.637 ± 0.081 | 0.348 ± 0.09 | 0.916 ± 0.077 | 1.04 ± 0.044 | 1.18 ± 0.22 | 1.2 ± 0.074 | 1.2 ± 0.15 | 0.881 ± 0.05 | 0.962 ± 0.22 | 1.17 ± 0.057 |
| SKBR3 BREAST | 0.866 ± 0.033 | 0.699 ± 0.049 | 0.322 ± 0.015 | 0.265 ± 0.013 | 0.167 ± 0.011 | 0.131 ± 0.007 | 0.119 ± 0.0076 | 0.122 ± 0.006 | 1.03 ± 0.087 | 0.956 ± 0.13 | 0.946 ± 0.13 | 1.04 ± 0.17 | 1.11 ± 0.11 | 0.939 ± 0.03 | 1.08 ± 0.17 | 1.05 ± 0.045 |
| HT1080 SOFT TISSUE | 0.994 ± 0.033 | 1.02 ± 0.015 | 1.037 ± 0.0045 | 0.991 ± 0.048 | 0.985 ± 0.036 | 1 ± 0.047 | 0.943 ± 0.031 | 0.729 ± 0.055 | 1 ± 0.012 | 0.989 ± 0.026 | 0.982 ± 0.016 | 1.04 ± 0.016 | 1.02 ± 0.041 | 0.974 ± 0.022 | 0.81 ± 0.013 | 0.594 ± 0.036 |
| SG27 HEADNECK | 1 ± 0.09 | 0.981 ± 0.035 | 1.04 ± 0.041 | 1 ± 0.14 | 0.883 ± 0.012 | 0.966 ± 0.13 | 0.865 ± 0.093 | 0.831 ± 0.068 | 0.982 ± 0.054 | 0.995 ± 0.12 | 1.04 ± 0.091 | 0.984 ± 0.13 | 1 ± 0.089 | 1.02 ± 0.12 | 1.11 ± 0.024 | 0.953 ± 0.13 |
| 143B BONE | 1.0165 ± 0.00071 | 1.05 ± 0.011 | 1.0335 ± 0.00071 | 1.02 ± 0.014 | 1.01 ± 0.023 | 1.02 ± 0.02 | 1 ± 0.028 | 0.871 ± 0.11 | 0.986 ± 0.015 | 1.01 ± 0.018 | 0.993 ± 0.025 | 0.999 ± 0.0071 | 0.9995 ± 0.0092 | 1.01 ± 0.028 | 0.904 ± 0.0014 | 0.707 ± 0.041 |
| CME SYNOVIAL | 1.34 ± 0.1 | 1.37 ± 0.18 | 1.33 ± 0.13 | 1.28 ± 0.17 | 1.44 ± 0.19 | 1.32 ± 0.12 | 1.26 ± 0.062 | 0.733 ± 0.066 | 1.07 ± 0.067 | 1.22 ± 0.12 | 1.16 ± 0.051 | 1.22 ± 0.03 | 1.29 ± 0.021 | 1.32 ± 0.19 | 1.24 ± 0.054 | 1.08 ± 0.18 |
| T47D BREAST | 1.06 ± 0.033 | 1.04 ± 0.06 | 1.01 ± 0.031 | 0.98 ± 0.023 | 1.04 ± 0.013 | 1.08 ± 0.022 | 1.07 ± 0.054 | 0.939 ± 0.037 | 1.03 ± 0.025 | 0.984 ± 0.038 | 0.964 ± 0.016 | 0.998 ± 0.029 | 1.08 ± 0.045 | 1.06 ± 0.072 | 1.03 ± 0.061 | 0.978 ± 0.011 |
| SUM149 BREAST | 1.03 ± 0.076 | 1.05 ± 0.033 | 0.703 ± 0.12 | 0.573 ± 0.089 | 0.481 ± 0.056 | 0.439 ± 0.013 | 0.4053 ± 0.004 | 0.339 ± 0.044 | 1.06 ± 0.068 | 0.998 ± 0.076 | 1.11 ± 0.068 | 1.05 ± 0.058 | 0.984 ± 0.029 | 1.06 ± 0.082 | 1.01 ± 0.067 | 1.05 ± 0.058 |
| HELA CERVIX | 1.08 ± 0.041 | 1.09 ± 0.049 | 1.06 ± 0.082 | 1.02 ± 0.022 | 1.19 ± 0.028 | 1.2 ± 0.018 | 1.22 ± 0.075 | 1.1 ± 0.045 | 0.998 ± 0.074 | 1.03 ± 0.053 | 0.994 ± 0.015 | 0.997 ± 0.055 | 1.06 ± 0.024 | 1.14 ± 0.019 | 1.14 ± 0.059 | 1.21 ± 0.056 |
| MHM BONE | 1.022 ± 0.0067 | 1 ± 0.018 | 1.02 ± 0.016 | 1 ± 0.03 | 1.07 ± 0.028 | 1.03 ± 0.016 | 0.961 ± 0.041 | 0.883 ± 0.022 | 0.987 ± 0.028 | 0.9777 ± 0.0058 | 1.01 ± 0.024 | 0.986 ± 0.011 | 1.026 ± 0.0069 | 1.039 ± 0.0067 | 0.983 ± 0.028 | 0.999 ± 0.018 |
| BT549 BREAST | 1.08 ± 0.1 | 1.12 ± 0.072 | 1.11 ± 0.11 | 1.07 ± 0.2 | 0.919 ± 0.15 | 1.09 ± 0.066 | 0.696 ± 0.15 | 0.278 ± 0.082 | 1.04 ± 0.17 | 1.05 ± 0.22 | 1.09 ± 0.12 | 1.12 ± 0.11 | 1.17 ± 0.14 | 0.917 ± 0.35 | 0.86 ± 0.42 | 0.996 ± 0.24 |
| U2OS BONE | 1.075 ± 0.001 | 1.05 ± 0.044 | 1.06 ± 0.013 | 1.02 ± 0.024 | 1.05 ± 0.0055 | 1.04 ± 0.056 | 0.838 ± 0.021 | 0.646 ± 0.0085 | 1.03 ± 0.058 | 1.06 ± 0.043 | 1.077 ± 0.007 | 1.04 ± 0.018 | 1.08 ± 0.05 | 1.06 ± 0.048 | 0.939 ± 0.014 | 0.732 ± 0.042 |
| COLO320DM LARGE INTESTINE | 1.14 ± 0.075 | 1.06 ± 0.088 | 1.08 ± 0.14 | 1.06 ± 0.073 | 1.04 ± 0.083 | 1.04 ± 0.08 | 0.872 ± 0.093 | 0.634 ± 0.037 | 1.13 ± 0.03 | 1.1 ± 0.056 | 1.003 ± 0.0076 | 1.09 ± 0.067 | 1.03 ± 0.019 | 1.09 ± 0.049 | 1.078 ± 0.0053 | 1.04 ± 0.049 |
